Experimental data: patent US9247759B2, “Identification of human T2R receptors that respond to bitter compounds that elicit the bitter taste in compositions, and the use thereof in assays to identify compounds that inhibit (block) bitter taste in compositions and use thereof” (SENOMYX, INC., priority 2007, dated 2016)
pIC50: −log10 of the molar value. Like-named read-outs stand apart in the source and are kept apart here.

Biological target: hT2R8 (Homo sapiens (Human), UniProt Q9NYW2)
Assay: hT2R8 antagonist high-throughput FLIPR assay, stable cell line with G16g44, agonist andrographolide
Type: cell-based
Summary of the method: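 HEK293 cells stably co-expressing hT2R8 and chimeric G16g44, read on FLIPR. Test compounds added together with andrographolide (200 μM), which drives the receptor to 70–80% of maximal activity; antagonism seen as reduced agonist response.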

[1] = read-out: IC50 on hT2R8 bitter receptor
[2] = table after Example 10-97, read-out: hT2R8 IC50

Sequence of hT2R8 (Q9NYW2 whole entry): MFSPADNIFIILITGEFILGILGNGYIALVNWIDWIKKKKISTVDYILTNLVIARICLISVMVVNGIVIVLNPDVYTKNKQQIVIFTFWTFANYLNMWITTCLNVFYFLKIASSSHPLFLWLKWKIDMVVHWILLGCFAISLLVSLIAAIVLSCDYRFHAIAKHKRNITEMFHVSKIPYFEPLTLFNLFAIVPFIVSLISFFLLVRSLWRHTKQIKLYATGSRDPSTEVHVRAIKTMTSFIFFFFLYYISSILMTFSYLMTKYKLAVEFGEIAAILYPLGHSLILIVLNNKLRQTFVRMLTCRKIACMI

Structure (SMILES)	pIC50 [1]	pIC50 (Table A, read-out: hT2R8 IC50)	other results
Cc1noc(C)c1Cn1cc(NC(=O)CCc2ccccc2)cn1 [Example 4-55, N-(1-((3,5-dimethylisoxazol-4-yl)methyl)-1H-pyrazol-4-yl)-3-phenylpropanamide]	–	6.31	–
Cc1noc(C)c1Cn1cc(N2C(=O)N(CCc3ccccc3F)C(C)(C)C2=O)cn1 [Example 12-53, 3-(1-((3,5-dimethylisoxazol-4-yl)methyl)-1H-pyrazol-4-yl)-1-(2-fluorophenethyl)-5,5-dimethylimidazolidine-2,4-dione]	–	–	pIC50 (table after Example 12-37, read-out: hT2R8 IC50): 6.70
COc1cc(C(=O)Nc2cnn(Cc3c(C)noc3C)c2)cc2c1OCO2 [Example 4-92, N-(1-((3,5-dimethylisoxazol-4-yl)methyl)-1H-pyrazol-4-yl)-7-methoxybenzo[d][1,3]dioxole-5-carboxamide]	6.15	–	–
CO[C@@H](C(=O)Nc1cnn(Cc2c(C)noc2C)c1)c1ccccc1 [Example 4-68, (R)-N-(1-((3,5-dimethylisoxazol-4-yl)methyl)-1H-pyrazol-4-yl)-2-methoxy-2-phenylacetamide]	–	5.30	–
Cc1noc(C)c1Cn1cc(NC(=O)c2cccn2C)cn1 [Example 4-49, N-(1-((3,5-dimethylisoxazol-4-yl)methyl)-1H-pyrazol-4-yl)-1-methyl-1H-pyrrole-2-carboxamide]	–	5.47	–
Cc1noc(C)c1Cn1cc(NC(=O)c2ccoc2C)cn1 [Example 4-51, N-(1-((3,5-dimethylisoxazol-4-yl)methyl)-1H-pyrazol-4-yl)-2-methylfuran-3-carboxamide]	–	5.10	–
COc1cc(C(=O)Nc2cnn(Cc3c(C)noc3C)c2)cc(O)c1O [Example 4-73, N-(1-((3,5-dimethylisoxazol-4-yl)methyl)-1H-pyrazol-4-yl)-3,4-dihydroxy-5-methoxybenzamide]	5.66	5.66	–
COc1ccc(OC)c(C(=O)Nc2cnn(Cc3c(C)noc3C)c2)c1 [Example 4-9, N-(1-((3,5-dimethylisoxazol-4-yl)methyl)-1H-pyrazol-4-yl)-2,5-dimethoxybenzamide]	6.77	–	–

More lines, main results first:

pIC50 [1]	pIC50 (Table A, read-out: hT2R8 IC50)	Structure (SMILES)	other results
7.52	–	Cc1noc(C)c1Cn1cc(N2C(=O)N(Cc3cccc(O)c3)C3(CCC3)C2=O)cn1 [Example 12-4, 7-(1-((3,5-dimethylisoxazol-4-yl)methyl)-1H-pyrazol-4-yl)-5-(3-hydroxybenzyl)-5,7-diazaspiro[3.4]octane-6,8-dione]	–
6.70	–	Cc1noc(C)c1Cn1cc(N2C(=O)CN(CCc3cccc(Cl)c3)C2=O)cn1 [Example 10-82, 1-(3-chlorophenethyl)-3-(1-((3,5-dimethylisoxazol-4-yl)methyl)-1H-pyrazol-4-yl)imidazolidine-2,4-dione]	pIC50 [2]: 6.01
7.52	–	Cc1noc(C)c1Cn1cc(N2C(=O)[C@H]3Cc4ccc(O)cc4CN3C2=O)cn1 [Example 13-2, (R)-2-(1-((3,5-dimethylisoxazol-4-yl)methyl)-1H-pyrazol-4-yl)-7-hydroxy-10,10a-dihydroimidazo[1,5-b]isoquinoline-1,3(2H,5H)-dione]	–
4.96	–	Cc1noc(C)c1Cn1cc(N2Cc3ccccc3C2=O)cn1 [Example 9-3, 2-(1-((3,5-dimethylisoxazol-4-yl)methyl)-1H-pyrazol-4-yl) isoindolin-1-One]	–
6.59	–	Cc1noc(C)c1Cn1cc(N2C(=O)CN(CCCc3ccccc3)C2=O)cn1 [Example 10-94, 3-(1-((3,5-dimethylisoxazol-4-yl)methyl)-1H-pyrazol-4-yl)-1-(3-phenylpropyl)imidazolidine-2,4-dione]	pIC50 [2]: 7.17
7.70	–	Cc1noc(C)c1Cn1cc(N2C(=O)[C@@H](C)N(Cc3cccc(O)c3)C2=O)cn1 [Example 12-7, (R)-3-(1-((3,5-dimethylisoxazol-4-yl)methyl)-1H-pyrazol-4-yl)-1-(3-hydroxybenzyl)-5-methylimidazolidine-2,4-dione]	–
7.40	–	CCn1c(=O)n(-c2cnn(Cc3c(C)noc3C)c2)c(=O)n1Cc1ccccc1 [Example 10-91, 1-benzyl-4-(1-((3,5-dimethylisoxazol-4-yl)methyl)-1H-pyrazol-4-yl)-2-ethyl-1,2,4-triazolidine-3,5-dione]	pIC50 [2]: 7.39
